Experimental data published in PubChem BioAssay (NCI).
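Dose response: 5 concentrations. Exposure: 48 h. Format: 96-well plates. Endpoint: linear interpolation; highest concentration if not reached. GI50 marks 50% less growth. TGI: concentration producing complete growth inhibition.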

Tests used:
Assay in all cases: inhibition of tumour cell growth, NCI panel, 48 h
DU-145 prostate = tested on: DU-145 prostate
EKVX NSCLC = tested on: EKVX NSCLC
M14 melanoma = tested on: M14 melanoma
OVCAR-4 ovarian = tested on: OVCAR-4 ovarian
OVCAR-5 ovarian = tested on: OVCAR-5 ovarian
OVCAR-8 ovarian = tested on: OVCAR-8 ovarian
SNB-19 CNS = tested on: SNB-19 CNS
T-47D breast = tested on: T-47D breast
UO-31 renal = tested on: UO-31 renal
UACC-62 melanoma = tested on: UACC-62 melanoma

Compound | GI50 (DU-145 prostate) [µM] | TGI (DU-145 prostate) [µM] | GI50 (EKVX NSCLC) [µM] | TGI (EKVX NSCLC) [µM] | GI50 (M14 melanoma) [µM] | TGI (M14 melanoma) [µM] | GI50 (OVCAR-4 ovarian) [µM] | TGI (OVCAR-4 ovarian) [µM] | GI50 (OVCAR-5 ovarian) [µM] | TGI (OVCAR-5 ovarian) [µM] | GI50 (OVCAR-8 ovarian) [µM] | TGI (OVCAR-8 ovarian) [µM] | GI50 (SNB-19 CNS) [µM] | TGI (SNB-19 CNS) [µM] | GI50 (T-47D breast) [µM] | TGI (T-47D breast) [µM] | GI50 (UO-31 renal) [µM] | TGI (UO-31 renal) [µM] | GI50 (UACC-62 melanoma) [µM] | TGI (UACC-62 melanoma) [µM]
Cc1cc(NCCCCNc2ccnc3cc(Cl)ccc23)nc(Nc2ccc(C(=O)N3CCCC3)cc2)n1 | 3.49 | 13.4 | 4.28 | 15.6 | 1.96 | 3.87 | 2.32 | 11 | 4.29 | 18 | 3.14 | 11.2 | 4.5 | 18.1 | 2.64 | 6.76 | 1.73 | 4.16 | – | –
COc1cc2c(cc1OCCCCCn1c(-c3ccco3)nc3ccccc31)N=C[C@@H]1CCCN1C2=O | < 0.0152 | – | < 0.0115 | 1.59 | < 0.01 | 0.0236 | < 0.014 | > 41.4 | – | – | < 0.01 | > 36.8 | – | – | < 0.01 | – | – | – | < 0.01 | < 0.0106
Cc1ccc(/C=C/C(=O)c2ccc(N)cc2)c(C)c1 | 10.8 | 22.7 | 19.5 | 38.8 | 2.45 | 7.52 | 2.09 | 5 | 7.32 | 27.9 | – | – | 14.4 | 27.8 | 2.05 | 4.64 | 1.83 | 3.92 | 2.52 | 7.16
N#Cc1c(NC(=O)c2cccc3ccccc23)sc2c1CCCC2 | 0.0759 | 2.86 | 0.132 | > 25 | 0.0249 | 0.116 | 0.19 | > 25 | 0.139 | > 25 | 0.0918 | > 25 | 0.107 | > 25 | 0.101 | > 20.1 | – | – | 0.018 | > 25
COc1ccc(/C(=N\O)c2cc(OC)c(OC)c(OC)c2)c(OC)c1N | 4.02 | > 100 | 5.96 | > 100 | 2.98 | > 100 | 12.4 | > 100 | – | – | 5.52 | > 100 | 5.61 | > 100 | > 100 | > 100 | 8.14 | > 100 | – | –
COc1cc(-n2cc(-c3ccc(F)cc3)[nH]c2=S)cc(OC)c1OC | > 100 | > 100 | > 100 | > 100 | – | – | > 100 | > 100 | > 100 | > 100 | > 100 | > 100 | 36.6 | > 100 | 72.4 | > 100 | > 100 | > 100 | > 100 | > 100
O=C(NCC(=O)N1CC[C@H](NC2CCC(O)(c3ccc(-c4ncccn4)cn3)CC2)C1)c1cccc(C(F)(F)F)c1 (stereo partly drawn) | > 100 | > 100 | 52.7 | > 100 | – | – | 37.7 | > 100 | > 100 | > 100 | > 100 | > 100 | > 100 | > 100 | 22.9 | > 100 | 52.3 | > 100 | > 100 | > 100
